The results in this text go back to PMC12176268, “Structural Features and Photophysical and Antiproliferative Properties of Me2N‑pbt-Cycloplatinated Complexes with Picolinate Ligands” (Inorganic Chemistry, 2025).

Read-outs that look alike come from different tables or passages of the source.

The test system of one experiment is MCF-10A. Kind of experiment: MTT cell viability assay on noncancerous MCF-10A cells, dark and 450 nm irradiation. Type of experiment: cell-based, human. The following applies: for EC50: MTT. An excerpt:
(C∧N) cyclometalated Pt(II) complexes have been previously reported to have strong antiproliferative activities when associated with phenanthroline-based, diphosphine, acyclic diamino carbenes, or picolinate ligands. In particular, (Me2N-pbt)-cyclometalated platinum complexes have been previously reported by some of us to have antiproliferative properties in the micromolar range on a panel of cancer cell lines, prompting us to investigate the anticancer properties of complexes 1–4 in dark conditions and, considering their high quantum yield (ϕΔ) of ^1O2 generation, under irradiation conditions. Due to the poor solubility of the complexes in an aqueous environment, complexes 1–4 were first dissolved in DMSO and diluted in the culture media to reach a final concentration of 1% DMSO when incubated with the cells. All complexes were screened against the so-called “triple-negative” breast cancer cell line MDA-MB-231, lung adenocarcinoma cell line A549, and the noncancerous breast cell line MCF-10A for 72 h in dark conditions and under 5 min irradiation at 450 nm (see Experimental Section for details). The irradiation time was kept short to prevent light-induced toxicity of the energetic wavelength observed at longer irradiation times (data not shown). The measurement of the effective concentration at 50% (EC50) was carried out using the classical MTT assay, and the data are provided in Table .
In dark conditions, we could notice a strong influence of substituents on the picolinate ligands. […] This can be correlated with its poor stability in the culture medium mentioned above, which might reduce its cellular uptake. […] However, in dark conditions, no particular selectivity for cancer cells could be observed with similar activity measured against the noncancerous cell line MCF-10A. For the “light” experiments, the cells were preincubated with the complexes for 4 h in the dark, irradiated at 450 nm for 5 min, and then put back in the dark until 72 h. The photoactivity index (PI) values, defined as the ratio between the EC50 in dark conditions and the EC50 after irradiation for each cell line, are shown in Figure .
The human lung adenocarcinoma cell line A549 and human breast cancer cell line MDA-MB-231 were cultivated in DMEM (Dulbecco’s modified Eagle’s medium) containing GlutaMax I supplemented with 10% FBS at 37 °C in a humidified atmosphere and 5% CO2. The noncancerous cell line MCF-10A was maintained in DMEM:F12 (1:1) cell culture media, 5% heat-inactivated horse serum, supplemented with HEPES (20 mM), L-glutamine (2 mM), epidermal growth factor (20 ng/mL), hydrocortisone (500 ng/mL), cholera toxin (100 ng/mL), and insulin (10 μg/mL). Cell viability was evaluated by using a colorimetric method based on the tetrazolium salt MTT [3-(4,5-dimethylthiazol-2-yl)-2,5-diphenyltetrazolium bromide], which is reduced by viable cells to yield purple formazan crystals. Cells were seeded in 96-well plates at a density of 40000 cells/mL (100 μL per well). Stock solutions were prepared in DMSO for complexes 1–4 and in water for cisplatin. […] For dark experiments, after overnight attachment, a dilution series of the compounds was added to the medium, and the cells were incubated for a further 72 h. For the irradiated experiments, after overnight attachment, a dilution series of the compounds was added to the medium, and the cells were preincubated for 4 h. The cells were then irradiated at 450 nm for 5 min with a Kessil Lamp (power: 3 mW/cm^2, 1.13 × 10^–8 Einstein/s at 20 cm distance between the light source and 96-well plate) and the incubation was continued until 72 h. After 72 h, the medium was removed and the cells were incubated with MTT solution in PBS (10 μL of 5 mg/mL) for 2–3 h. The formed purple formazan crystals were dissolved in 100 μL of DMSO by thorough shaking, and the absorbance at 580 nm was read using a microplate reader (FLUOstar OPTIMA, BMG Labtech). Each test was performed with at least 3 replicates and repeated at least 3 times. […]
(Formazan colour is commonly taken as a measure of viable cells.)

In experiment [1] the target is bovine serum albumin (BSA) (Bos taurus, UniProt P02769). Kind of experiment: Emission and UV–vis titration of complex 3 with BSA. Format: binding. The following applies: 10 μM complex, BSA 0–50 μM, H2O/DMSO 95/5, λexc 450 nm. As for the experimental part: The possible interaction of these Pt(II) complexes with the model protein bovine serum albumin (BSA) was studied by fluorescence and UV–vis spectroscopy. […] The effect of increasing the amount of BSA (from 0 to 50 μM) on solutions of complex 3 in mixtures of H2O/DMSO (95/5 v/v) while keeping the concentration of 3 (10 μM) constant was evaluated. Upon addition of BSA (3/BSA 1:0.25), a slight blue shift of the emission band from 510 to 495 nm is observed, and a clear switch-on of the monomer phosphorescence (^3ILCT), as a structured band slightly blue-shifted (ca. 574 nm) in relation to the complex in DMSO is observed. The intensity of this latter band reaches a maximum when the 3/BSA ratio was ca 1:1 (Figure ). […] In particular, the decrease in fluorescence emission and the switch-on of the monomer phosphorescence can be attributed to the binding of 3 to the hydrophobic pockets of the protein, which increases the rigidity of its environment and decreases the nonradiative constant.
Chain of bovine serum albumin (BSA) (P02769 25-607): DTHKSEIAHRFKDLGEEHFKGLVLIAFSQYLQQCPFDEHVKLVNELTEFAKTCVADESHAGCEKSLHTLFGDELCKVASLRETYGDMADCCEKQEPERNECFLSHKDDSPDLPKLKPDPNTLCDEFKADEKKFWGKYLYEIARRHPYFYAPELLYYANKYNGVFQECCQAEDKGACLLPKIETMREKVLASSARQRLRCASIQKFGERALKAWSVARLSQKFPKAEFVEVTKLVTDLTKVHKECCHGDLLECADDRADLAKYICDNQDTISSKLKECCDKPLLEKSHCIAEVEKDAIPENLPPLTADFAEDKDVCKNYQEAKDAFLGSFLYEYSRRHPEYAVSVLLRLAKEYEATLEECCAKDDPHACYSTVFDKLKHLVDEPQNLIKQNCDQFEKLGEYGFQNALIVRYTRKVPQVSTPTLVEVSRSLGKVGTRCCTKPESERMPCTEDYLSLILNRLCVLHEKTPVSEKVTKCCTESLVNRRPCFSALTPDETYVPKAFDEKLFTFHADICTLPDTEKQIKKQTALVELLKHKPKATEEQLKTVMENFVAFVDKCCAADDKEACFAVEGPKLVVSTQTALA
For the BSA binding experiment, solutions of complex 3 with BSA in mixtures of DMSO/H2O (5/95 v/v) were prepared, keeping the concentration of 3 (10 μM) constant and increasing the amount of BSA (from 0 to 50 μM). […] The fluorescence intensities were then measured at λexc = 450 nm, and the emission fluorescence spectra were recorded in the wavelength range λ = 400–800 nm.

What is called EC50 is the concentration at which the effect is half-maximal. “[Pt(Me2N-pbt)(3-OH-pic-κN,O)] [Complex 3]”: in the experiment on MCF-10A (5 min irradiation at 450 nm), the “photoactivity index (PI), EC50 dark / EC50 after irradiation, MCF-10A” value is < 2. Also, the EC50 came out at 520 ± 50 nM in the experiment with MCF-10A (4 h preincubation, 5 min irradiation at 450 nm, then dark until 72 h, read-out: EC50 MCF-10A light) and 1000 ± 200 nM in the experiment with MCF-10A (72 h incubation at 37 °C, dark, read-out: EC50 MCF-10A dark). In addition, the “interaction with BSA (changes of emission and UV–vis spectra)” value in experiment [1] was “interacts strongly with BSA”.
